Experimental data taken from the kinase profiling compilation of Christmann-Franck et al. (2016).

Tests used:
Assay in all cases: radiometric filter-binding kinase assay
[1] = target: CaMK1 (human) (UniProt Q14012)
[2] = target: NEK6 (human) (UniProt Q9HC98)
[3] = target: MAPK15 (human) (UniProt Q8TD08)
[4] = target: JAK2 JH1 JH2 (human) (UniProt O60674)
[5] = target: RPS6KA5 KD1 KD2 (human) (UniProt O75582)
[6] = target: SRPK1 (human) (UniProt Q96SB4)
[7] = target: CSK (human) (UniProt P41240)
Sequence of CSK (human) (P41240 whole entry, looked up): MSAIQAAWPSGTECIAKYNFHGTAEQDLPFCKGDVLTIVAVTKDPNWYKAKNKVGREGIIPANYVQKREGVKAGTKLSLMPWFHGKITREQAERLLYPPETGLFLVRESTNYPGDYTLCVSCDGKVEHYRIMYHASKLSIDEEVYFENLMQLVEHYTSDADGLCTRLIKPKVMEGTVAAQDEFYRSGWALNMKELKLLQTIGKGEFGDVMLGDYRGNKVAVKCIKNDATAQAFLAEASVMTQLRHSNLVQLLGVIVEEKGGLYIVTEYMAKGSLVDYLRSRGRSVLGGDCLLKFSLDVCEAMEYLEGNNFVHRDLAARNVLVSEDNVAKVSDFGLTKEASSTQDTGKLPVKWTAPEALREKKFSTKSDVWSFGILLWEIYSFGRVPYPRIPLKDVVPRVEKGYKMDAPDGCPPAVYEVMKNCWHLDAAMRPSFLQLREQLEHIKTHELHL

[8] = target: MKNK1 (human) (UniProt Q9BUB5)
[9] = target: BRSK1 (human) (UniProt Q8TDC3)
[10] = target: PRKACA (human) (UniProt P17612)
[11] = target: BTK (human) (UniProt Q06187)
Sequence of BTK (human) (Q06187 whole entry, looked up): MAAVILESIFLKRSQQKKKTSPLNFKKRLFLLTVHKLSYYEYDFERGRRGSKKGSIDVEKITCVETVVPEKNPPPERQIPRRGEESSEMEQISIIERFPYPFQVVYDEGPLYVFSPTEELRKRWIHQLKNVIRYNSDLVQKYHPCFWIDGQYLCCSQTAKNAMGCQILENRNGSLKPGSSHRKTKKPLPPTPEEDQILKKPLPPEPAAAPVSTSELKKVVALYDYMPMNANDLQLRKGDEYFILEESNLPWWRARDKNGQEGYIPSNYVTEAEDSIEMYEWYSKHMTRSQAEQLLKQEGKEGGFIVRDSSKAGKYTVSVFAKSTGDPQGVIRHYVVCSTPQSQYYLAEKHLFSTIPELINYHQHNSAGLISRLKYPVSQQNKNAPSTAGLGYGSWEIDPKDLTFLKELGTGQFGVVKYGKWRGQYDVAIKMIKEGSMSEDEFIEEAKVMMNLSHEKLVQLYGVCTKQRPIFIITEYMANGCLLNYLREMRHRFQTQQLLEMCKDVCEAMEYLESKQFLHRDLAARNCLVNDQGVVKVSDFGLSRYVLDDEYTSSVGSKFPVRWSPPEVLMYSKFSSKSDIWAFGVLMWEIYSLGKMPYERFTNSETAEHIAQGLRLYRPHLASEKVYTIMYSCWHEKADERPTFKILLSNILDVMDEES

[12] = target: DYRK2 (human) (UniProt Q92630)
[13] = target: MARK1 (human) (UniProt Q9P0L2)
[14] = target: INSR (human) (UniProt P06213)
[15] = target: PHKG1 (human) (UniProt Q16816)
[16] = target: NUAK1 (human) (UniProt O60285)
[17] = target: EPHA4 (human) (UniProt P54764)
[18] = target: MST4 (human) (UniProt Q9P289)
[19] = target: INSRR (human) (UniProt P14616)
[20] = target: CDK2 CCNA2 (human) (UniProt P20248+P24941)
[21] = target: MAP2K1 (human) (UniProt Q02750)
[22] = target: MINK1 (human) (UniProt Q8N4C8)
[23] = target: MAPKAPK2 (human) (UniProt P49137)
Sequence of MAPKAPK2 (human) (P49137 whole entry, looked up): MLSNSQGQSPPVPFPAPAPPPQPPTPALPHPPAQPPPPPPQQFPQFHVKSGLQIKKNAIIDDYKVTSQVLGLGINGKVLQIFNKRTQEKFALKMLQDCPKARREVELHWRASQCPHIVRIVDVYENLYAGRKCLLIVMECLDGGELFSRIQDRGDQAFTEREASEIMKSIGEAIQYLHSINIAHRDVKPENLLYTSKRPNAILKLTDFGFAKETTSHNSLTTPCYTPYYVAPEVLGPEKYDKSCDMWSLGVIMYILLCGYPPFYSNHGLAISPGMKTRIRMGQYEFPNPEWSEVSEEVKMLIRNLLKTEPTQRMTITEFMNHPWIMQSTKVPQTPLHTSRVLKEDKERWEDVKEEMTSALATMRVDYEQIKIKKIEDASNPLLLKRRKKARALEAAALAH

[24] = target: EPHB2 (human) (UniProt P29323)
[25] = target: MARK2 (human) (UniProt Q7KZI7)
[26] = target: ERBB4 (human) (UniProt Q15303)
Sequence of ERBB4 (human) (Q15303 whole entry, looked up): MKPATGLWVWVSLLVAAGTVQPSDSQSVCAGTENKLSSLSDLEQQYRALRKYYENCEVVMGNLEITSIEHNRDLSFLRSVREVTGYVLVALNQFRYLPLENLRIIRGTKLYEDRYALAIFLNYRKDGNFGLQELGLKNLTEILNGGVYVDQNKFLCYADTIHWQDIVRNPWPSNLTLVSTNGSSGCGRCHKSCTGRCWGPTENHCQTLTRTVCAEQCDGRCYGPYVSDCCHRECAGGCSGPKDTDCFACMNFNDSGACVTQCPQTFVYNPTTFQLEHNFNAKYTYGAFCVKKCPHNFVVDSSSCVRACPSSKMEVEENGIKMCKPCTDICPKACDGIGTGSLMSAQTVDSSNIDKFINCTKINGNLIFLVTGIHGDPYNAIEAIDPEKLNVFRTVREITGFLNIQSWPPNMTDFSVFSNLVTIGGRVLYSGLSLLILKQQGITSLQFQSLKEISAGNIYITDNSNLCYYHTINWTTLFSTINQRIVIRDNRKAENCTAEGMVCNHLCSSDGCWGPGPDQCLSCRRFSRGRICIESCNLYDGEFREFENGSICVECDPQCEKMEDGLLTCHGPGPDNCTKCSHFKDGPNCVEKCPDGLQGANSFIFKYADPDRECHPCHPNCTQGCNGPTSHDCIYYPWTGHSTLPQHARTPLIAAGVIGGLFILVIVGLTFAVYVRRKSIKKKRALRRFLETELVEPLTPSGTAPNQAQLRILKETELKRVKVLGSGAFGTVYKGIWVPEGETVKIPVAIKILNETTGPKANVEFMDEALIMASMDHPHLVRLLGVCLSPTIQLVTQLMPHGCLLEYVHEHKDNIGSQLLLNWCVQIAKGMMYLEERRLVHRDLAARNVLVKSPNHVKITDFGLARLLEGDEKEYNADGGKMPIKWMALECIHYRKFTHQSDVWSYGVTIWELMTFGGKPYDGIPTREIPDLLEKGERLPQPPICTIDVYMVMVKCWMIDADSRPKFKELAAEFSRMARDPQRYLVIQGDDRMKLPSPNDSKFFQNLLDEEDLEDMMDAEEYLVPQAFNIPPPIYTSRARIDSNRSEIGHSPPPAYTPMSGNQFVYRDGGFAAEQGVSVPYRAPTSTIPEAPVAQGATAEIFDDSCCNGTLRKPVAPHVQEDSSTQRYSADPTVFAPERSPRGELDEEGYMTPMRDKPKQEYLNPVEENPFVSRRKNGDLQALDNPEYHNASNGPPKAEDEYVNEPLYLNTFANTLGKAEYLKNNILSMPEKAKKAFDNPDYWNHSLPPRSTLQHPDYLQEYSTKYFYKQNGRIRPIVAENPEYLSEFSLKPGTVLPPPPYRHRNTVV

[27] = target: PAK7 (human) (UniProt Q9P286)
[28] = tested on: LCK (mouse); details: accession and sequence are those of the human protein
[29] = target: EPHA2 (human) (UniProt P29317)
[30] = target: RIPK2 (human) (UniProt O43353)
[31] = target: HIPK3 (human) (UniProt Q9H422)
[32] = target: NEK2 (human) (UniProt P51955)
Sequence of NEK2 (human) (P51955 whole entry, looked up): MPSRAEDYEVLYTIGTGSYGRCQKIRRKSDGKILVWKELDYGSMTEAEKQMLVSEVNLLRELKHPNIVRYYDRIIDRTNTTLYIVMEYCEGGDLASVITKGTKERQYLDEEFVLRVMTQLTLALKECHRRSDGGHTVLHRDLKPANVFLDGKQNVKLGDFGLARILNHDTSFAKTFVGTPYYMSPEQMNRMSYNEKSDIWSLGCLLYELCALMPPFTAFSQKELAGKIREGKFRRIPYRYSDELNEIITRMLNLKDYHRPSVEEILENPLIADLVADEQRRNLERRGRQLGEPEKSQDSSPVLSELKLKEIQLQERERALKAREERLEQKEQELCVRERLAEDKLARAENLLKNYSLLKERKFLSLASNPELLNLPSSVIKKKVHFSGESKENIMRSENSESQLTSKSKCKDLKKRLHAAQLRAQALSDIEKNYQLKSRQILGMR

[33] = target: CAMKK2 (human) (UniProt Q96RR4)
[34] = tested on: PRKAA1 or PRKAA2 (rat); details: accession and sequence are those of the human protein
[35] = target: PRKCA (human) (UniProt P17252)

Sequence of MAPK15 (human) (Q8TD08 whole entry, looked up): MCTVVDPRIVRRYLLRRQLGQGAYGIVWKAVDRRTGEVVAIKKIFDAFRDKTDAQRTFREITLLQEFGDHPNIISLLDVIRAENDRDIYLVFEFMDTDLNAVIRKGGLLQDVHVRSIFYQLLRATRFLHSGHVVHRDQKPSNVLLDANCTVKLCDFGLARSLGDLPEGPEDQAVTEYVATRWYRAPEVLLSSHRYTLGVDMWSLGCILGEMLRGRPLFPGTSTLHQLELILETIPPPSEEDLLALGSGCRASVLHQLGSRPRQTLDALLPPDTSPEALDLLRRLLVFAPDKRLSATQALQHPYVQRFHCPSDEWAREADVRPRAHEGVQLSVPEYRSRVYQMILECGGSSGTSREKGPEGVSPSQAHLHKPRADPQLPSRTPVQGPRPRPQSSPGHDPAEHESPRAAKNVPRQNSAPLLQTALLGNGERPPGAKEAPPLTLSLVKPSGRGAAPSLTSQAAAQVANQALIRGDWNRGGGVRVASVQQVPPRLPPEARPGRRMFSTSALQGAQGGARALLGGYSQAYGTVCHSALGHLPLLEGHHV
Sequence of NEK6 (human) (Q9HC98 whole entry, looked up): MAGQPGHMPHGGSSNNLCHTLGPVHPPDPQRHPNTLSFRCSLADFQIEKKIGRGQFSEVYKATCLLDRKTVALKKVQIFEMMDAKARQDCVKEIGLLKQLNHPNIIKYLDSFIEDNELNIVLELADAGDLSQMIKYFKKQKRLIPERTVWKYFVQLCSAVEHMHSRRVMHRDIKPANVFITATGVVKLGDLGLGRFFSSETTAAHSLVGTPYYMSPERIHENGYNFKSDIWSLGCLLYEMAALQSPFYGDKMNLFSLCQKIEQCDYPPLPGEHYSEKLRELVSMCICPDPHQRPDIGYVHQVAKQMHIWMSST

**Q.** With `FC(F)(F)c1ccc(-c2ccc(Oc3cncc4sc(-c5nn[nH]n5)cc34)cc2)cc1` as the compound, how does the residual activity ([1]; compound 1.0 µM) read?
**A.** The residual activity was 93%.

**Q.** And the residual activity ([1]; compound 10.0 µM)?
**A.** Its residual activity is 73%.

**Q.** And the residual activity ([2]; compound 1.0 µM)?
**A.** Its residual activity is 93%.

**Q.** What about the residual activity ([2]; compound 10.0 µM) of the same compound?
**A.** Its residual activity is 83%.

**Q.** What about the residual activity ([3]; compound 1.0 µM) of the same compound?
**A.** Its residual activity is 34%.

**Q.** What about the residual activity ([3]; compound 10.0 µM) of the same compound?
**A.** Its residual activity is 4%.

**Q.** And the residual activity ([4]; compound 1.0 µM)?
**A.** Its residual activity is 99%.

**Q.** And the residual activity ([4]; compound 10.0 µM)?
**A.** The residual activity was 46%.

**Q.** What about the residual activity ([5]; compound 1.0 µM) of the same compound?
**A.** Its residual activity is 90%.

**Q.** And the residual activity ([5]; compound 10.0 µM)?
**A.** The residual activity was 22%.

**Q.** What about the residual activity ([6]; compound 1.0 µM) of the same compound?
**A.** Its residual activity is 112%.

**Q.** What about the residual activity ([6]; compound 10.0 µM) of the same compound?
**A.** Its residual activity is 105%.

**Q.** What about the residual activity ([7]; compound 1.0 µM) of the same compound?
**A.** The residual activity was 100%.

**Q.** And the residual activity ([7]; compound 10.0 µM)?
**A.** The residual activity was 95%.

**Q.** What about the residual activity ([8]; compound 1.0 µM) of the same compound?
**A.** Its residual activity is 89%.

**Q.** And the residual activity ([8]; compound 10.0 µM)?
**A.** Its residual activity is 55%.

**Q.** What about the residual activity ([9]; compound 1.0 µM) of the same compound?
**A.** The residual activity was 138%.

**Q.** And the residual activity ([9]; compound 10.0 µM)?
**A.** The residual activity was 104%.

**Q.** What about the residual activity ([10]; compound 1.0 µM) of the same compound?
**A.** The residual activity was 101%.

**Q.** And the residual activity ([10]; compound 10.0 µM)?
**A.** The residual activity was 89%.

**Q.** What about the residual activity ([11]; compound 1.0 µM) of the same compound?
**A.** Its residual activity is 98%.

**Q.** And the residual activity ([11]; compound 10.0 µM)?
**A.** The residual activity was 84%.

**Q.** And the residual activity ([12]; compound 1.0 µM)?
**A.** The residual activity was 16%.

**Q.** And the residual activity ([12]; compound 10.0 µM)?
**A.** The residual activity was 3%.

**Q.** What about the residual activity ([13]; compound 1.0 µM) of the same compound?
**A.** The residual activity was 99%.

**Q.** And the residual activity ([13]; compound 10.0 µM)?
**A.** The residual activity was 72%.

**Q.** What about the residual activity ([14]; compound 1.0 µM) of the same compound?
**A.** Its residual activity is 100%.

**Q.** And the residual activity ([14]; compound 10.0 µM)?
**A.** Its residual activity is 91%.

**Q.** And the residual activity ([15]; compound 1.0 µM)?
**A.** Its residual activity is 102%.

**Q.** What about the residual activity ([15]; compound 10.0 µM) of the same compound?
**A.** The residual activity was 82%.

**Q.** And the residual activity ([16]; compound 1.0 µM)?
**A.** The residual activity was 128%.

**Q.** And the residual activity ([16]; compound 10.0 µM)?
**A.** The residual activity was 88%.

**Q.** And the residual activity ([17]; compound 1.0 µM)?
**A.** The residual activity was 109%.

**Q.** And the residual activity ([17]; compound 10.0 µM)?
**A.** The residual activity was 106%.

**Q.** And the residual activity ([18]; compound 1.0 µM)?
**A.** Its residual activity is 118%.

**Q.** What about the residual activity ([18]; compound 10.0 µM) of the same compound?
**A.** The residual activity was 71%.

**Q.** And the residual activity ([19]; compound 1.0 µM)?
**A.** The residual activity was 67%.

**Q.** And the residual activity ([19]; compound 10.0 µM)?
**A.** The residual activity was 27%.

**Q.** What about the residual activity ([20]; compound 1.0 µM) of the same compound?
**A.** Its residual activity is 79%.

**Q.** And the residual activity ([20]; compound 10.0 µM)?
**A.** Its residual activity is 47%.

**Q.** What about the residual activity ([21]; compound 1.0 µM) of the same compound?
**A.** The residual activity was 87%.

**Q.** What about the residual activity ([21]; compound 10.0 µM) of the same compound?
**A.** Its residual activity is 31%.

**Q.** And the residual activity ([22]; compound 1.0 µM)?
**A.** The residual activity was 96%.

**Q.** What about the residual activity ([22]; compound 10.0 µM) of the same compound?
**A.** Its residual activity is 87%.

**Q.** What about the residual activity ([23]; compound 1.0 µM) of the same compound?
**A.** Its residual activity is 97%.

**Q.** And the residual activity ([23]; compound 10.0 µM)?
**A.** Its residual activity is 94%.

**Q.** And the residual activity ([24]; compound 1.0 µM)?
**A.** The residual activity was 111%.

**Q.** And the residual activity ([24]; compound 10.0 µM)?
**A.** Its residual activity is 120%.

**Q.** And the residual activity ([25]; compound 1.0 µM)?
**A.** The residual activity was 83%.

**Q.** And the residual activity ([25]; compound 10.0 µM)?
**A.** Its residual activity is 84%.

**Q.** And the residual activity ([26]; compound 1.0 µM)?
**A.** The residual activity was 94%.

**Q.** And the residual activity ([26]; compound 10.0 µM)?
**A.** The residual activity was 89%.

**Q.** What about the residual activity ([27]; compound 1.0 µM) of the same compound?
**A.** The residual activity was 103%.

**Q.** And the residual activity ([27]; compound 10.0 µM)?
**A.** The residual activity was 94%.

**Q.** What about the residual activity ([28]; compound 1.0 µM) of the same compound?
**A.** Its residual activity is 100%.

**Q.** What about the residual activity ([28]; compound 10.0 µM) of the same compound?
**A.** Its residual activity is 98%.

**Q.** And the residual activity ([29]; compound 1.0 µM)?
**A.** The residual activity was 126%.

**Q.** And the residual activity ([29]; compound 10.0 µM)?
**A.** The residual activity was 94%.

**Q.** What about the residual activity ([30]; compound 1.0 µM) of the same compound?
**A.** The residual activity was 83%.

**Q.** And the residual activity ([30]; compound 10.0 µM)?
**A.** Its residual activity is 30%.

**Q.** What about the residual activity ([31]; compound 1.0 µM) of the same compound?
**A.** Its residual activity is 63%.

**Q.** And the residual activity ([31]; compound 10.0 µM)?
**A.** Its residual activity is 10%.

**Q.** What about the residual activity ([32]; compound 1.0 µM) of the same compound?
**A.** The residual activity was 108%.

**Q.** And the residual activity ([32]; compound 10.0 µM)?
**A.** Its residual activity is 113%.

**Q.** And the residual activity ([33]; compound 1.0 µM)?
**A.** The residual activity was 105%.

**Q.** And the residual activity ([33]; compound 10.0 µM)?
**A.** The residual activity was 44%.

**Q.** And the residual activity ([34]; compound 1.0 µM)?
**A.** The residual activity was 81%.

**Q.** What about the residual activity ([34]; compound 10.0 µM) of the same compound?
**A.** Its residual activity is 51%.

**Q.** What about the residual activity ([35]; compound 1.0 µM) of the same compound?
**A.** Its residual activity is 107%.

**Q.** What about the residual activity ([35]; compound 10.0 µM) of the same compound?
**A.** Its residual activity is 59%.
